Source: paper PMC10380841, “Synthesis, Characterization and Cytotoxic Evaluation of New Pyrrolo[1,2-b]pyridazines Obtained via Mesoionic Oxazolo-Pyridazinones” (International Journal of Molecular Sciences, 2023)
“Also recorded” adds a separate entry of the source. Read-outs that look alike come from different tables or passages of the source.

Tests used:
[1] = test system: Triticum vulgare root tips; assay: Microscopic examination of Triticum root tips (mitotic film changes); format: in vivo; conditions: 24 h contact
Description: Microscopic examination of Triticum vulgare root tips followed the mitotic film changes induced by the tested compounds. Observations were made after 24 h of contact of the caryopses with the test solutions. The study was made in comparison with DMSO control maintained under the same conditions as the samples. To obtain microscopic preparations, sectioning of wheat embryonic roots was carried out at about 5 mm from the tip and stained with dilute […] according to the La Cour procedure. The examination was conducted on a Euromex oxion series 110–240 V/50–60 Hz microscope with digital camera CEMEX 5 DC 5000 C and 40× and 100× lenses with cedar oil immersion (Sigma-Aldrich St. Louis, MO, USA).

[2] = Daphnia magna toxicity assay; format: in vivo; conditions: Daphnia magna, in vivo; 48 h
Description: (§1) Young organisms of Daphnia magna were selected according to their size from a parthenogenetic culture maintained in an artificial medium for 24 h before the bioassay. The determination was conducted in tissue culture plates with 12 wells (Greiner Bio-One, Monroe, NC, USA), with 10 organisms in each well, and a final volume of 3 mL per sample [65, 66]. As a negative control, DMSO was used at a concentration of 1%. All compounds were tested at six different concentration levels, ranging from 12.5 to 500 μg/mL. All assessments were performed in duplicate.

Daphnia magna Straus = assay: Daphnia magna toxicity assay; format: in vivo; conditions: for toxicity on Daphnia magna / L% values (lethality): 48 h; for L% values (lethality): all tested concentrations
Description: as §1

[3] = test system: LoVo colon adenocarcinoma cells; assay: MTS cytotoxicity assay, LoVo; format: cell-based, human
Description: (§2) Therefore, the precursor acids 2a–c and corresponding pyrrolo[1,2-b]pyridazines 5a–c,f were tested for their potential cytotoxic activity. During the assays, increasing concentrations of the compounds, ranging from […], were added for 24 h or 48 h to cancer LoVo, SK-OV-3, MCF-7, and the reference HUVEC cells, previously cultured for 24 h in 96-well flat bottom plates. […] Then, MTS reagent was added, and cells were incubated for 4 h at 37 °C in a 5% CO2 humidified atmosphere. The absorbance values were spectrophotometrically read to a Dynex ELISA reader at λ = […].
(§3) For the evaluation of the in vitro potential anti-proliferative effects of treatments with the new compounds under study against solid tumor-derived cells, several compound-mediated cytotoxicity assays were performed on three adherent tumor standardized cell lines, and normal human endothelial cells, used as control: the MCF-7 human breast adenocarcinoma and SK-OV-3 human ovary adenocarcinoma cell lines were provided from European Collection of Authenticated Cell Cultures (ECACC), while LoVo, human colorectal adenocarcinoma cell line, and HUVEC human umbilical vein endothelial cells were purchased from American Type Culture Collection (ATCC).
(§4) Adherent cells were cultivated in DMEM/F12 medium added with 2 mM L-glutamine and 10% fetal bovine serum, 100 units/mL penicillin, 100 µg/mL streptomycin (Sigma Aldrich, St. Louis, MO, USA) and incubated at 37 °C in 5% CO2 humidified atmosphere. The stock solutions for cell treatments were prepared by dissolving the synthesized compounds in a minimum amount of DMSO. Working dilutions were prepared from the stock solutions in culture medium before each treatment assay. After 24 h, when cell cultures achieved around 70% confluence, treatments were applied for various periods of time with different concentrations of synthesized compounds or oncolytic drugs, used as positive controls.
(§5) Therefore, cell cultures treated with the new compounds or oncolytic drugs for 24 h or 48 h were further subjected to a colorimetric cell viability method, the MTS assay. The absorbance of probes was read, data were calculated, and percentages of cell viability were assessed.
(§6) The evaluation of the compound-induced cytotoxicity was made using the CellTiter 96 Aqueous One Solution Cell Proliferation Assay (Promega, Madison, WI, USA), a reagent that contains both MTS (3-(4,5-dimethylthiazol-2-yl)-5-(3-carboxymethoxyphenyl)-2-(4-sulfophenyl)-2H-tetrazolium, inner salt) and PES ([…], a cationic dye with high chemical stability that binds to MTS and forms a stable solution).
(§7) Briefly, 1.5 × 10^4 cancer or normal cells were cultured in 100 µL/well for 24 h. After the culture supernatants were discarded, cells were treated for additional 24 h or 48 h with increasing concentrations of new compounds or oncolytic drugs. Following the specific treatments, in each well a volume of 20 µL of coloring mixture reagent of MTS and PES was added, and then the plates were incubated with mild agitation every 20 min for 4 h at 37 °C. The color developed during incubation was spectrophotometrically quantified at λ = 492 nm using a Dynex ELISA reader (DYNEX Technologies—MRS, Chantilly, VA, USA).
(§8) Data were expressed as percentages of cell viability of the treated cells, and were calculated and compared to the untreated cells (considered 100% viable), using the formula:Cell viability (%) = (T − B)/(U − B) × 100 where T = absorbance of treated cells, U = absorbance of untreated cells, and B = absorbance of culture medium (blank), for λ = 492 nm.
(§9) The cell viability data were expressed as the mean values ± standard deviations (SD) of three different experiments (n = 3). […] Moreover, a parallel experiment was performed in the absence of cells, with all the concentrations of the compounds being tested for their potential interference with MTS reagents; then, their absorbance values were extracted during calculations.

[4] = test system: MCF-7 breast adenocarcinoma cells; assay: MTS cytotoxicity assay, MCF-7; format: cell-based, human; conditions: Homo sapiens, MCF7; for viability at 400 µM: MCF-7, 400 μM, 48 h, read-out: cell viability; for IC50: MCF-7, 48 h, read-out: IC50 MCF-7 48 h
Description: as §2, §3, §4, §5
as §6, with “solution). The assay is based on the ability of the metabolically active cells to reduce the yellow tetrazolium salt MTS to a compound that is soluble in culture medium, the colored formazan, followed by the spectrophotometric evaluation of its concentration.” for “solution).”
as §7, §8
The cell viability data were expressed as the mean values ± standard deviations (SD) of three different experiments (n = 3). […]

[5] = test system: SK-OV-3 ovary adenocarcinoma cells; assay: MTS cytotoxicity assay, SK-OV-3; format: cell-based, human
Description: as §2, §3, §4, §5, §6, §7, §8, §9

[6] = test system: LoVo colon adenocarcinoma cells; assay: MTS cytotoxicity assay, LoVo; format: cell-based; conditions: Homo sapiens, read-out: cell viability
[7] = test system: SK-OV-3 ovary adenocarcinoma cells; assay: MTS cytotoxicity assay, SK-OV-3; format: cell-based; conditions: Homo sapiens; SK-OV-3, 400 μM, 24 h; read-out: cell viability
Triticum aestivum L. = assay: Triticum test, phytotoxicity (main root length); format: in vivo; conditions: Triticum aestivum, 72 h; Triticum root length, 10–1000 µM, measured over three days
Description: Phytobiological testing (Triticum test) was performed by the Constantinescu method which consists in determining the maximum active dilution of a compound. Depending on the duration of action, it can influence root elongation and the […] film. […] Embryonic wheat roots were obtained by germinating homogeneous wheat caryopses in Linhart pots. Then the caryopses with a main root length of 1 cm were placed in the test solutions. For the determination of the action of each compound, five dilutions in the concentration range of 10–1000 µM were obtained and 11 caryopses were placed in them. Petri dishes containing 15 mL of diluted solution were kept under constant conditions of temperature (25 °C), and humidity (60%), in the absence of light. […] The results were expressed in comparison with a 1% DMSO control.
Statistical analyses were performed using the computing and programming environment R, R, v. 4.2.1 [68], under Rstudio, v. 2022.07.2+576 “Spotted Wakerobin” for Windows (RStudio, PBC, Boston, 2022), both for the Triticum and Artemia tests. It used a parametric mixed-effects model (R package “lme4”) and a robust mixed-effects model (R package “robustlmm”), in which root length measurements (Triticum) from all three days were used as the dependent variable, whereas compound, concentration and time were treated as fixed effects, with time (day of measurement) also treated as a random effect. Assessing statistical significance for mixed-effects statistical models is controversial and complex, but as a pragmatic way of working, we have estimated p-values using the Kenward–Rogers approximation (R package “sjPlot”). A variety of R base functions and R packages were used to diagnose the regression models (“car” [72], “MASS” [73], and “gvlma” [74]). Mixed boxplot–dotplot plots were generated using the “ggplot2” package.
The “drc” R package was used to estimate IC50 values for the Triticum bioassay by nonlinear modeling. For Triticum, the relationship between root length and concentration was modeled using Weibull functions with 2, 3, or 4 parameters, depending on the data distribution, the models being selected from a range of several models with different functions and parameters, based on the Akaike’s information criterion (AIC).

[8] = Homo sapiens, 24 h, read-out: IC50 LoVo 24 h
[9] = Homo sapiens, 48 h, read-out: IC50 LoVo 48 h
[10] = Homo sapiens, SK-OV-3, 24 h, read-out: IC50 Sk-OV-3 24 h
[11] = Homo sapiens, SK-OV-3, 48 h, read-out: IC50 Sk-OV-3 48 h

| Compound | mitotic film / cell changes in root tips ([1]; 1000 μM) | LC50 at 48 h [2] [µM] | toxicity on Daphnia magna (Daphnia magna Straus) | IC50 [3, 8] [µM] | IC50 [3, 9] [µM] | viability at 400 µM [4] [%] | IC50 [4] [µM] | IC50 [5, 10] [µM] | IC50 [5, 11] [µM] | viability at 100 µM ([6]; 48 h) [%] | viability at 400 µM ([6]; 24 h) [%] | viability at 400 µM ([6]; 48 h) [%] | viability at 400 µM [7] [%] | IC50 (Triticum aestivum L.) [µM] | L% values (lethality) (Daphnia magna Straus) | other results |
| --- | --- | --- | --- | --- | --- | --- | --- | --- | --- | --- | --- | --- | --- | --- | --- | --- |
| CCc1cc(C(=O)OC)c2ccc(-c3ccc(F)cc3)nn12 [Compound 5b, Methyl 7-ethyl-2-(4-fluorophenyl)pyrrolo[1,2-b]pyridazine-5-carboxylate] | telophase in tropokinesis, normal, or disorganized metaphase | 463 | moderate toxicity | ≥ 400 | ≥ 400 | 89.7 | ≥ 400 | ≥ 400 | ≥ 400 | 79.4 | 87.8 | 60.3 | 78 |  |  |  |
| CCC(C(=O)O)n1nc(-c2ccc(Cl)cc2)ccc1=O (centres unmarked) [Compound 2c, 2-[6-Oxo-3-(4-chlorophenyl)pyridazin-1-yl]butanoic acid] | disorganized metaphase |  | no toxicity | ≥ 400 | 367 ± 3.7 |  |  | ≥ 400 | ≥ 400 |  | 78.2 | 48.1 | 88.3 | 553 | ND * (all L% values were lower than 30%) |  |
| CCC(C(=O)O)n1nc(-c2ccc(F)cc2)ccc1=O (centres unmarked) [Compound 2b, 2-[6-Oxo-3-(4-fluorophenyl)pyridazin-1-yl]butanoic acid] | Mitoinhibition and cells with 1-3 nucleoli |  | no toxicity | ≥ 400 | ≥ 400 |  | ≥ 400 | ≥ 400 | ≥ 400 |  | 91 | 81.1 |  | 204 | ND * (all L% values were lower than 30%) |  |
| CCc1cc(C(=O)OC)c2ccc(-c3ccc(Cl)cc3)nn12 [Compound 5c, Methyl 2-(4-chlorophenyl)-7-ethylpyrrolo[1,2-b]pyridazine-5-carboxylate] |  | ~107 |  | ≥ 400 | ≥ 400 | 88.5 | ≥ 400 | ≥ 400 | ≥ 400 |  | 68.6 | 61.1 |  |  | ND ** (all L% values were in range of 30 to 70%, independent of concentration) |  |
| CCc1cc(C(=O)OC)c2ccc(-c3ccccc3)nn12 [Compound 5a, Methyl 7-ethyl-2-phenylpyrrolo[1,2-b]pyridazine-5-carboxylate] | telophase with delayed chromosome, wavy cell walls; also recorded: no mitoinhibitory effect | 46.1 |  | ≥ 400 | 304 ± 4.85 |  |  |  |  | 58.2 | 63.5 | 48.5 |  |  |  | mitotic film / cell changes in root tips ([1]; 100 µM): bridged telophase, disorganized metaphase; maximum lethality (L%) (Daphnia magna Straus; 24 h): 40%; viability at 50 µM ([6]; 24 h): 79%; viability at 50 µM ([6]; 48 h): 65.3%; viability at 100 µM ([6]; 24 h): 78.1%; viability at 200 µM ([6]; 200 μM, 48 h): 52.5% |
| N.N.[Cl][Pt][Cl] [CisPt, cisplatin, reference compound] |  |  |  |  |  |  |  |  |  |  |  |  |  |  |  | IC50 ([3]; 24 h, read-out: IC50 LoVo 24 h): 79.1 ± 4.75 µM; IC50 ([3]; 48 h, read-out: IC50 LoVo 48 h): 57 ± 0.95 µM; IC50 ([5]; SK-OV-3, 24 h, read-out: IC50 Sk-OV-3 24 h): 92.2 ± 3.45 µM; IC50 ([5]; SK-OV-3, 48 h, read-out: IC50 Sk-OV-3 48 h): 78.2 ± 4.01 µM |
